Experimental data from paper PMC12051620, “Molecular basis underlying the specificity of an antagonist AA92593 for mammalian melanopsins” (The Journal of Biological Chemistry, 2025).

How the values were obtained:
[1] = tested on: Xenopus Opn4x L207^5.42F mutant; experiment: GsX GloSensor assay with Gsα/q11; assay type: cell-based; settings: 16.7 μM AA92593, COS-1 cells
Source text: (§1) Similar to human and mouse melanopsins (Fig. 5, F and H, I, M, and N), the introduction of a Phe residue at position 207^5.42 in Xenopus Opn4x and Chicken Opn4-1 increased their susceptibility of the melanopsins for AA92593 by ∼53% and ∼37%, respectively, although the substitutions reduced light-dependent cAMP responses by the melanopsins (Fig. 6, C and F, G and H). […]
(§2) For GloSensor assay, opsins, GloSensor assay sensor (coded by pGlo-22F), and NanoBiT-tagged G proteins were transiently expressed in COS-1 cells (kindly provided from Dr David Farrens, Oregon Health and Science University) using PEI as described previously ([24], [52]). […] For GFP-fluorescence microscopy, a 35-mm cell culture dish (IWAKI) was transfected with 2 μg melanopsin-GFP plasmid and 8 μg PEI in 400 μl Opti-mem and 1.2 ml D-MEM. […]
(§3) The transfected COS-1 cells were incubated at 37 °C, 5% CO2 for 2 days, and the medium was aspirated and exchanged with 50 μl of HBSS (145 mM NaCl, 10 mM D-glucose, 5 mM KCl, 1 mM MgCl2, 1.7 mM CaCl2, 1.5 mM NaHCO3, 10 mM Hepes, pH 7.4), containing 33.3, 20, 10, 2, 0.2, 0.02, 0.002, or 0 μM AA92593, 0.5% dimetyl sulfoxide (DMSO), and 4% (vol/vol) GloSensor cAMP reagent stock solution. […] Then, the cells were incubated at room temperature for 1 h, and luminescence changes were monitored. […] Luminescence was measured using GM-2000 or GM-3510 microplate reader (Promega). […]

[2] = tested on: chicken Opn4-1 L207^5.42F mutant; experiment: GsX GloSensor assay with Gsα/q11; assay type: cell-based; settings: 16.7 μM AA92593, COS-1 cells
Source text: as §1, §2, §3

## COc1ccc(S(=O)(=O)N2CCCCC2)cc1C [AA92593]
[1]
  increase in susceptibility for AA92593 vs WT: ~53%
[2]
  increase in susceptibility for AA92593 vs WT: ~37%
